Tested on: warts
Conditions: human, in vivo
From the text: In accordance with the method according to this invention, regular use of the α- and β-santalols is meant to mean application of the α- and β-santalols at least once a day to the body surface containing the viral-induced tumors (i.e., warts and Molluscom contagiosum tumors). A further embodiment of the method of this invention comprises washing the affected area of the body with the soap, rinsing the area, placing a small amount of the α- and β-santalols on the tumor to be treated and then gently rubbing to facilitate penetration. […] The subject was advised to rub 1 drop of the santalol mixture after washing their hand with regular soap and water. The subject was to use a loofah sponge to soften the surface of the warts prior to the application of the santalol mixture. […] A subject had three warts on their right and left index fingers for over five years. […] The subject was advised to wash the warts with soap and water using a loofah sponge to soften the surface of the warts, prior to applying one drop of the santalol mixture on the warts and rubbing gently. The treatment was to occur once a day. […] The subject was asked to wash the warts on their face with soap and water and then apply the santalols with a cotton swab. […] After the resolution of the facial warts, the subject's non-facial warts were treated with the santalols.

What does the source list for α- and β-santalol [santalol mixture]?
local side effects (redness, irritation or pain): no evidence of any local side effects; local skin irritation (redness, pain): no evidence of any local skin irritation; skin irritation, burning or redness at sites of application: no evidence; tolerability of treatment: well tolerated

Reference: patent US6406706B1, “Use of α- and β-santalols major constituents of sandal wood oil, in the treatment of warts, skin blemishes and other viral-induced tumors” (Haque, Inc., priority 1996, dated 2002)
